Assay results reported in patent US20240228482A1, “COMPOUNDS, COMPOSITIONS AND METHODS OF TREATING CANCER” (HOTSPOT THERAPEUTICS, INC., priority 2021, published 2024).

biological target: T1, CBL-B (Homo sapiens, UniProt Q13191); test: CBL-B TR-FRET IC50 screening (E1/E2 ubiquitination, Biotin-Ubiquitin, Anti GST-Tb donor / Streptavidin-d2 acceptor); format: biochemical; details: second part of Table 2 (head 'Patent Cmpd No / Updated Activity'); same CBL-B TR-FRET IC50 bins A-F; read-out: Updated Activity
T1 construct: GST
T1 sequence (Q13191 whole entry): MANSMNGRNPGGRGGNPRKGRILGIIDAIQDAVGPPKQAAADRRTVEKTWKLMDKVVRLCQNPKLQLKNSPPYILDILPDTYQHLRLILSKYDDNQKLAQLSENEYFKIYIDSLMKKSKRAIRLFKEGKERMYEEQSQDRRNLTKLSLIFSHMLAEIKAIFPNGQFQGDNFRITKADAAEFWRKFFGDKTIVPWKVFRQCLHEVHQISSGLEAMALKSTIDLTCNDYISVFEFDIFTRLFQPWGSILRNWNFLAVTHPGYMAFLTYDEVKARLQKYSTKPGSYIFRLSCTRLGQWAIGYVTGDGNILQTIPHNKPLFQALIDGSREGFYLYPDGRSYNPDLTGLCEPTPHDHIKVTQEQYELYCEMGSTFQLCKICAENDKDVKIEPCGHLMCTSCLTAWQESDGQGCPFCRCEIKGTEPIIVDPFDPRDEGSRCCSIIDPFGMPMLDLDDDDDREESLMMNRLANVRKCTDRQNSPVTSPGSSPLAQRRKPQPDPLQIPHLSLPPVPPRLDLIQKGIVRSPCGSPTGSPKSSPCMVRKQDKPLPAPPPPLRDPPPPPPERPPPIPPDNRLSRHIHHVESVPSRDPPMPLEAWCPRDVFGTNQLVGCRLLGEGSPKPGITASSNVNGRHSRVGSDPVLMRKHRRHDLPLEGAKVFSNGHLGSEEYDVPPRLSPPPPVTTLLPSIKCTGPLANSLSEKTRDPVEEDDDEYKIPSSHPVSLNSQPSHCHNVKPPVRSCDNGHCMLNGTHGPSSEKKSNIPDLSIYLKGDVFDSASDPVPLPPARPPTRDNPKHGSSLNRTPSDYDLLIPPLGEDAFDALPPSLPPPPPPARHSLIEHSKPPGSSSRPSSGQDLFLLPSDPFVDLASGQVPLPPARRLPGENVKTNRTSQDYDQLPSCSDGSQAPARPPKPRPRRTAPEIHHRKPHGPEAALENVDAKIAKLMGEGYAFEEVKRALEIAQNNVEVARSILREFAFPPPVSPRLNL

| Compound | IC50 [nM] |
| --- | --- |
| Cn1cnnc1[C@H](c1cc(F)cc(-n2cc3c(C(F)(F)F)cc(CN4CCC5(CC5)C4)cn3c2=O)c1)C1CCC1 (single isomer, unassigned) [Compound 514] | < 100 |
| Cn1cnnc1[C@H](c1cc(C#N)cc(-n2cc3c(C(F)(F)F)cc(CN4CCC(C)(F)CC4)cn3c2=O)c1)C1CCC1 (single isomer, unassigned) [Compound 516] | > 10000 |
| C[C@@H]1CN(Cc2cc(C(F)(F)F)c3cn(-c4cc(C#N)cc([C@@H](c5nncn5C)C5CCC5)c4)c(=O)n3c2)CCO1 (single isomer, unassigned) [Compound 517] | > 10000 |
| Cn1cnnc1[C@H](c1cc(-c2nnnn2C)cc(-n2cc3c(C(F)(F)F)cccn3c2=O)c1)C1CCC1 (single isomer, unassigned) [Compound 531] | 301 to 1000 |
| Cn1cnnc1[C@@H](c1cc(-c2nnnn2C)cc(-n2cc3c(C(F)(F)F)cccn3c2=O)c1)C1CCC1 (single isomer, unassigned) [Compound 532] | > 10000 |
| Cn1cnnc1[C@@H](c1cc(F)cc(-n2cc3c(C(F)(F)F)cc(CN4CC5(CC5)C4)cn3c2=O)c1)C1CCC1 (single isomer, unassigned) [Compound 533] | 1000 to 3000 |
| Cn1cnnc1[C@@H](c1cc(F)cc(-n2cc3c(C(F)(F)F)cc(CN4CCC(C)(F)CC4)cn3c2=O)c1)C1CCC1 (single isomer, unassigned) [Compound 534] | < 100 |
| CNC(=O)Cc1cc([C@@H](c2nncn2C)C2CCC2)cc(-n2cc3c(C(F)(F)F)cccn3c2=O)c1 (single isomer, unassigned) [Compound 537] | > 10000 |
| CNC(=O)Cc1cc([C@H](c2nncn2C)C2CCC2)cc(-n2cc3c(C(F)(F)F)cccn3c2=O)c1 (single isomer, unassigned) [Compound 538] | > 10000 |
| Cn1cnnc1[C@H](c1cc(F)cc(-n2cc3c(C(F)(F)F)cc(CN4CC5(CC5)C4)cn3c2=O)c1)C1CCC1 (single isomer, unassigned) [Compound 539] | < 100 |
| Cn1cnnc1[C@H](c1cc(F)cc(-n2cc3c(C(F)(F)F)cc(CN4CCC(C)(F)CC4)cn3c2=O)c1)C1CCC1 (single isomer, unassigned) [Compound 540] | 301 to 1000 |
| Cn1cnnc1[C@@H](c1cc(C#N)cc(-n2cc3c(C(F)(F)F)cc(CN4CC5(CC5)C4)cn3c2=O)c1)C1CCC1 (single isomer, unassigned) [Compound 557] | > 10000 |
| CNC(=O)CCc1cc([C@@H](c2nncn2C)C2CCC2)cc(-n2cc3c(C(F)(F)F)cccn3c2=O)c1 (single isomer, unassigned) [Compound 558] | > 10000 |
| CNC(=O)CCc1cc([C@H](c2nncn2C)C2CCC2)cc(-n2cc3c(C(F)(F)F)cccn3c2=O)c1 (single isomer, unassigned) [Compound 559] | > 10000 |
| Cn1cnnc1[C@H](c1cc(C#N)cc(-n2cc3c(C(F)(F)F)cc(CN4CC5(CC5)C4)cn3c2=O)c1)C1CCC1 (single isomer, unassigned) [Compound 560] | < 100 |
| C[C@H](c1cc(C(F)(F)F)c2cn(-c3cccc([C@H](c4nncn4C)C4CCC4)c3)c(=O)n2c1)N1CC[C@H](C#N)C1 (single isomer, unassigned) [Compound 573_P1] | < 100 |
| C[C@@H](c1cc(C(F)(F)F)c2cn(-c3cccc([C@H](c4nncn4C)C4CCC4)c3)c(=O)n2c1)N1CC[C@H](C#N)C1 (single isomer, unassigned) [Compound 573_P2] | < 100 |

Results, then the compound that gave them:

| IC50 [nM] | Compound |
| --- | --- |
| > 10000 | C[C@@H]1CN(Cc2cc(C(F)(F)F)c3cn(-c4cc(F)cc([C@@H](c5nncn5C)C5CCC5)c4)c(=O)n3c2)CCO1 (single isomer, unassigned) [Compound 515] |
| < 100 | COCCO[C@H]1CCCN(Cc2cc(C(F)(F)F)c3cn(-c4cccc([C@H](c5nncn5C)C5CCC5)c4)c(=O)n3c2)C1 (single isomer, unassigned) [Compound 518] |
| < 100 | COCCO[C@@H]1CCCN(Cc2cc(C(F)(F)F)c3cn(-c4cccc([C@H](c5nncn5C)C5CCC5)c4)c(=O)n3c2)C1 (single isomer, unassigned) [Compound 519] |
| > 10000 | CO[C@]1(C)C[C@H]([C@H](c2cccc(-n3cc4c(C(F)(F)F)cc(CN5CCC[C@H](C)C5)cn4c3=O)c2)c2nncn2C)C1 (single isomer, unassigned) [Compound 529] |
| > 10000 | CO[C@]1(C)C[C@H]([C@@H](c2cccc(-n3cc4c(C(F)(F)F)cc(CN5CCC[C@H](C)C5)cn4c3=O)c2)c2nncn2C)C1 (single isomer, unassigned) [Compound 530] |
| 301 to 1000 | CO[C@H]1C[C@@H]([C@@H](c2cccc(-n3cc4c(C(F)(F)F)cc(CN5CCC[C@H](C)C5)cn4c3=O)c2)c2nncn2C)C1 (single isomer, unassigned) [Compound 551] |
| 301 to 1000 | CO[C@H]1C[C@H]([C@H](c2cccc(-n3cc4c(C(F)(F)F)cc(CN5CCC[C@H](C)C5)cn4c3=O)c2)c2nncn2C)C1 (single isomer, unassigned) [Compound 552] |
| < 100 | CO[C@H]1C[C@H]([C@@H](c2cccc(-n3cc4c(C(F)(F)F)cc(CN5CCC[C@H](C)C5)cn4c3=O)c2)c2nncn2C)C1 (single isomer, unassigned) [Compound 553] |
| < 100 | CO[C@H]1C[C@@H]([C@H](c2cccc(-n3cc4c(C(F)(F)F)cc(CN5CCC[C@H](C)C5)cn4c3=O)c2)c2nncn2C)C1 (single isomer, unassigned) [Compound 554] |
| > 10000 | C[C@H]1CCCN(Cc2cc(C(F)(F)F)c3cn(-c4cc(C#N)cc([C@H](c5nncn5C)C5COC5)c4)c(=O)n3c2)C1 (single isomer, unassigned) [Compound 555] |
| < 100 | C[C@H]1CCCN(Cc2cc(C(F)(F)F)c3cn(-c4cc(C#N)cc([C@@H](c5nncn5C)C5COC5)c4)c(=O)n3c2)C1 (single isomer, unassigned) [Compound 556] |
| < 100 | Cn1cnnc1[C@@H](c1cccc(-n2cc3c(C(F)(F)F)cc(CN4CCC[C@@](C)(O)C4)cn3c2=O)c1)C1CCC1 (single isomer, unassigned) [Compound 569] |
| < 100 | C[C@@H]1CN(Cc2cc(C(F)(F)F)c3cn(-c4cccc([C@H](c5nncn5C)C5CCC5)c4)c(=O)n3c2)CC[C@@H]1O (single isomer, unassigned) [Compound 570] |
| < 100 | C[C@H]1CN(Cc2cc(C(F)(F)F)c3cn(-c4cccc([C@H](c5nncn5C)C5CCC5)c4)c(=O)n3c2)CC[C@H]1O (single isomer, unassigned) [Compound 571] |
| > 10000 | C[C@H]1CCCN(Cc2cc(C(F)(F)F)c3cn(-c4cccc([C@H](c5nncn5C)[C@H]5C[C@@](C)(O)C5)c4)c(=O)n3c2)C1 (single isomer, unassigned) [Compound 574] |
| > 10000 | C[C@H]1CCCN(Cc2cc(C(F)(F)F)c3cn(-c4cccc([C@H](c5nncn5C)[C@H]5C[C@](C)(O)C5)c4)c(=O)n3c2)C1 (single isomer, unassigned) [Compound 575] |
| > 10000 | C[C@H]1CCCN(Cc2cc(C(F)(F)F)c3cn(-c4cccc([C@@H](c5nncn5C)[C@H]5C[C@](C)(O)C5)c4)c(=O)n3c2)C1 (single isomer, unassigned) [Compound 576] |
| > 10000 | C[C@H]1CCCN(Cc2cc(C(F)(F)F)c3cn(-c4cccc([C@@H](c5nncn5C)[C@H]5C[C@@](C)(O)C5)c4)c(=O)n3c2)C1 (single isomer, unassigned) [Compound 577] |
